This is an account of results in patent publication US12679838B2, “Aromatic compound and application thereof in antitumor drug” (Shanghai Zheye Biotechnology Co., Ltd., priority 2020, dated 2026).

Structures are written as SMILES. Like-named read-outs stand apart in the source and are kept apart here. Some results are limits rather than exact numbers.

The subject of one experiment is NCI-H358 cells. Description: Cell proliferation inhibitory activity, NCI-H358 (CellTiter-Glo). To be noted: for IC50: Homo sapiens. It is filed as cell-based. How it is done:
(§1) NCI-H358 cells in an exponential growth phase were digested with trypsin-EDTA and plated in a 96-well plate at 2000-3000 cells per well and incubated overnight at 37° C. with 5% CO2. A test compound was prepared as a mother liquor with DMSO, diluted with a RPMI 1640 growth medium in a concentration gradient and added to the 96-well plate and incubated for 72 hours at 37° C. in a 5% CO2 incubator. After incubation, an equal volume of CellTiter-Glo detection reagent was added to each well and incubated after shaking, and a chemiluminescence value was measured by a microplate reader, and the IC50 value for the inhibition of NCI-H358 cell proliferation was fitted and calculated by GraphPad Prism software.
The inhibitory effect of the compounds on the proliferation activity of H358 cells was tested with reference to the method of the biological test 2, and the results were as follows:
The inhibitory effect of the compounds on the proliferation activity of NCI-H358 cells was tested with reference to the method of the biological test 2, and the results were as follows.
A general note: Cellular ATP, detected with luciferase, serves as a proxy for viable cell number.

Another experiment relates to MIA PaCa-2 cells. In words: Cell proliferation inhibitory activity, MIA PaCa-2 (CellTiter-Glo). To be noted: for IC50: Homo sapiens, MIA PaCa-2 cells, 72 hours. It is filed as cell-based. As to the method: as §1, with “MIA PaCa-2” for “NCI-H358”, “DMEM” for “RPMI 1640”
Experiment [1] concerns NCI-H358 tumor cells xenograft. Description: Pharmacodynamics test of xenograft tumor model of NCI-H358 in nude mice. It is filed as in vivo, Balb/c Nude mice. To be noted: NCI-H358 xenograft, 100 mg/kg, QD×15 days, oral gavage. As to the method:
Animal species and number: Balb/c Nude; 6 animals per group.
Samples for testing: compound 3-2M, compound 3-16M, TM-1, TM-3, and AMG510 (obtained by purchasing).
Test groups: blank solvent control group; compound 3-2M (100 mg/kg, QD×15 days), compound 3-16M (100 mg/kg, QD×15 days), TM-1 (100 mg/kg, QD×15 days), TM-3 (100 mg/kg, QD×15 days); and AMG510 (100 mg/kg, QD×15 days).
Animal model establishment: NCI-H358 tumor cells at logarithmic phase were cultured and collected in vitro, and inoculated subcutaneously on the right side of the back of nude mice at a quantity of 5×10^6 cells/each, and the tumor-bearing nude mice were randomly grouped when the tumor volume grew to 150-300 mm^3. Subsequently, each group of animals was administered and the day of the first administration was defined as day 1 of the test.
Administration route and frequency: oral gavage; and once a day.
General state observation: observation time and frequency: once a day; observation index or content: including, but is not limited to local administration, appearance and signs, general behavioral activities, mental status, death and other abnormal manifestations of the animals. The animals were euthanized at the end of the test.
Tumor volume calculation: V=½×long diameter× short diameter^2 (mm^3). Tumor growth inhibition ratio TGI (%) was used to evaluate the tumor suppressive efficacy of the compounds. TGI (%)=[1-(mean tumor volume at the end of administration of the treatment group−mean tumor volume at the beginning of administration of the treatment group)/(mean tumor volume at the end of administration of the control group−mean tumor volume at the beginning of administration of the control group)]×100%.

Where [2] appears, read: NCI-H358, biological test 3, H358 cells, read-out: Cell proliferation inhibitory activity IC50 value of H358.
Where [3] appears, read: NCI-H358, 72 h, biological test 2, NCI-H358 cells, 72 hours, read-out: Cell proliferation inhibitory activity IC50 value of H358.
The mark [4] stands for this setting: NCI-H358, biological test 7, NCI-H358 cells, read-out: Cell proliferation inhibitory activity IC50 value of NCI-H358.

Take `C=CC(=[18O])N1CCN(c2nc(=O)n(-c3c(C)ccnc3C(C)C)c3nc(-c4ccccc4C=O)c(Cl)cc23)[C@@H](C)C1` [Compound 3-1MIS]: the “cell proliferation inhibitory activity against KRAS G12C mutant cells NCI-H358 (in words)” value in the experiment on NCI-H358 cells is on record as “significant cell proliferation inhibitory activities”. Further, in the experiment with NCI-H358 cells (setting [2]), the IC50 was below 50 nM.
As to `C=CC(=[18O])N1CCN(c2nc(=O)n(-c3c(CC)ccnc3C(C)C)c3nc(-c4ccccc4C=O)c(Cl)cc23)[C@@H](C)C1` [Compound 3-2MIS], the “cell proliferation inhibitory activity against KRAS G12C mutant cells NCI-H358 (in words)” value in the experiment with NCI-H358 cells was “significant cell proliferation inhibitory activities”. Further, the IC50 in the experiment with NCI-H358 cells (setting [2]) was below 50 nM.
With `C=CC(=O)N1CCN(c2nc(=O)n(-c3c(C)ccnc3C(C)C)c3nc(-c4ccccc4C=O)c(Cl)cc23)[C@@H](C)C1` [Compound 3-2], in the experiment on MIA PaCa-2 cells, the “cell proliferation inhibitory activity against KRAS G12C mutant cells MIA PaCa-2 (in words)” value was “significant cell proliferation inhibitory activities” and the IC50 is below 50 nM. For the same molecule, in the experiment on NCI-H358 cells, the “cell proliferation inhibitory activity against KRAS G12C mutant cells NCI-H358 (in words)” value is “significant cell proliferation inhibitory activities”. Besides, the IC50 with NCI-H358 cells (setting [3]) is at most 50 nM.
Take `C=CC(=[18O])N1CCN(c2nc(=O)n(-c3c(C)ccnc3C(C)C)c3nc(-c4c(F)cccc4C=O)c(Cl)cc23)[C@@H](C)C1` [Compound 3-3MIS]: the “cell proliferation inhibitory activity against KRAS G12C mutant cells NCI-H358 (in words)” value in the experiment with NCI-H358 cells is on record as “significant cell proliferation inhibitory activities”. The IC50 with NCI-H358 cells (setting [2]) is below 50 nM.
The corresponding values for `C=CC(=[18O])N1C[C@H](C)N(c2nc(=O)n(-c3c(C)ccnc3C(C)C)c3nc(-c4ccccc4C=O)c(Cl)cc23)[C@@H](C)C1` [Compound 3-4MIS] are “significant cell proliferation inhibitory activities” and below 50 nM.
The corresponding values for `[2H]C(=O)c1ccccc1-c1nc2c(cc1Cl)c(N1CCN(C(=[18O])C=C)C[C@@H]1C)nc(=O)n2-c1c(C)ccnc1C(C)C` [Compound 3-5MIS] are “significant cell proliferation inhibitory activities” and below 50 nM.
For `[2H]C(=O)c1ccccc1-c1nc2c(cc1Cl)c(N1CCN(C(=O)C=C)C[C@@H]1C)nc(=O)n2-c1c(CC)ccnc1C(C)C` [Compound 3-6B], in the experiment on NCI-H358 cells, the “cell proliferation inhibitory activity against KRAS G12C mutant cells NCI-H358 (in words)” value is listed as “significant cell proliferation inhibitory activities”. Further, the IC50 with NCI-H358 cells (setting [3]) is at most 50 nM; with NCI-H358 cells (setting [4]), below 50 nM.
Consider `[2H]C(=O)c1ccccc1-c1nc2c(cc1Cl)c(N1CCN(C(=[18O])C=C)C[C@@H]1C)nc(=O)n2-c1c(CC)ccnc1C(C)C` [Compound 3-6MIS], for which the “cell proliferation inhibitory activity against KRAS G12C mutant cells NCI-H358 (in words)” value with NCI-H358 cells is given as “significant cell proliferation inhibitory activities”. Besides, the IC50 with NCI-H358 cells (setting [2]) is below 50 nM.
Consider `C=CC(=O)N1CCN(c2nc(=O)n(-c3c(C)ccnc3C(C)C)c3nc(-c4c(F)cccc4C=O)c(Cl)cc23)[C@@H](C)C1` [Compound 3-6P], for which the IC50 in the experiment on NCI-H358 cells (setting [3]) was above 50 nM.
In the case of `C=CC(=O)N1CCN(c2nc(=O)n(-c3c(C)ccnc3C(C)C)c3nc(-c4c(F)cccc4C=O)c(Cl)cc23)[C@@H](C)C1` [Compound 3-6], in the experiment with MIA PaCa-2 cells, the “cell proliferation inhibitory activity against KRAS G12C mutant cells MIA PaCa-2 (in words)” value is given as “significant cell proliferation inhibitory activities” and the IC50 was below 50 nM. For the same molecule, the “cell proliferation inhibitory activity against KRAS G12C mutant cells NCI-H358 (in words)” value in the experiment with NCI-H358 cells is given as “significant cell proliferation inhibitory activities”.
As for `[2H]C(=O)c1cccc(F)c1-c1nc2c(cc1Cl)c(N1CCN(C(=[18O])C=C)C[C@@H]1C)nc(=O)n2-c1c(C)ccnc1C(C)C` [Compound 3-7MIS], the “cell proliferation inhibitory activity against KRAS G12C mutant cells NCI-H358 (in words)” value in the experiment with NCI-H358 cells is “significant cell proliferation inhibitory activities”. Moreover, in the experiment on NCI-H358 cells (setting [2]), the IC50 is below 50 nM.
In the case of `[2H]C(=O)c1ccccc1-c1nc2c(cc1Cl)c(N1[C@@H](C)CN(C(=[18O])C=C)C[C@@H]1C)nc(=O)n2-c1c(C)ccnc1C(C)C` [Compound 3-8MIS], in the experiment with NCI-H358 cells, the “cell proliferation inhibitory activity against KRAS G12C mutant cells NCI-H358 (in words)” value is recorded as “significant cell proliferation inhibitory activities”. Also, in the experiment with NCI-H358 cells (setting [2]), the IC50 was below 50 nM.
On to `[2H]C(=O)c1ccccc1-c1nc2c(cc1Cl)c(N1[C@@H](C)CN(C(=O)C=C)C[C@@H]1C)nc(=O)n2-c1c(C)ccnc1C(C)C` [Compound 3-14], for which the “cell proliferation inhibitory activity against KRAS G12C mutant cells NCI-H358 (in words)” value in the experiment with NCI-H358 cells was “significant cell proliferation inhibitory activities”. Besides, the IC50 with NCI-H358 cells (setting [3]) is at most 50 nM.
`C=CC(=O)N1C[C@H](C)N(c2nc(=O)n(-c3c(C)ccnc3C(C)C)c3nc(-c4ccccc4C=O)c(Cl)cc23)C[C@H]1C` [Compound 3-17M]: in the experiment on MIA PaCa-2 cells, the “cell proliferation inhibitory activity against KRAS G12C mutant cells MIA PaCa-2 (in words)” value is given as “significant cell proliferation inhibitory activities” and the IC50 is below 50 nM.
Consider `C=CC(=O)N1C[C@H](C)N(c2nc(=O)n(-c3c(C)ccnc3C(C)C)c3nc(-c4c(F)cccc4C=O)c(Cl)cc23)C[C@H]1C` [Compound 3-19M], for which, in the experiment with MIA PaCa-2 cells, the “cell proliferation inhibitory activity against KRAS G12C mutant cells MIA PaCa-2 (in words)” value is reported as “significant cell proliferation inhibitory activities” and the IC50 was below 50 nM.
`[2H]C(=O)c1ccccc1-c1nc2c(cc1Cl)c(N1CCN(C(=O)C=C)C[C@]1([2H])C)nc(=O)n2-c1c(C)ccnc1C(C)C` [Compound 3-28M]: the “cell proliferation inhibitory activity against KRAS G12C mutant cells NCI-H358 (in words)” value in the experiment with NCI-H358 cells was “significant cell proliferation inhibitory activities”. For the same molecule, the IC50 in the experiment on NCI-H358 cells (setting [3]) is at most 50 nM.
As to `C=CC(=O)N1CCN(c2nc(=O)n(-c3c(C(C)C)ncnc3C(C)C)c3nc(-c4ccccc4C=O)c(Cl)cc23)[C@@H](C)C1` [Compound 3-31], the “cell proliferation inhibitory activity against KRAS G12C mutant cells NCI-H358 (in words)” value with NCI-H358 cells is reported as “significant cell proliferation inhibitory activities”. In addition, in the experiment on NCI-H358 cells (setting [4]), the IC50 was below 50 nM.
Consider `C=CC(=O)N1CCN(c2nc(=O)n(-c3c(C)ccnc3C(C)C)c3nc(-c4ccccc4C(C)=O)c(Cl)cc23)[C@@H](C)C1` [TM-1, reference compound], for which the IC50 in the experiment with NCI-H358 cells (setting [4]) was in the range of 50 to 150 nM. Further, in experiment [1], the “Tumor suppression ratio (%)” value is “++ (“++” represents that the tumor suppression ratio is between 60% and 100%)”.
For the molecule `C=CC(=O)N1C[C@H](C)N(c2nc(=O)n(-c3c(C)ccnc3C(C)C)c3nc(-c4ccccc4C(N)=O)c(Cl)cc23)C[C@H]1C` [TM-2, reference compound], the IC50 in the experiment on NCI-H358 cells (setting [4]) is above 150 nM.
`C=CC(=O)N1C[C@H](C)N(c2nc(=O)n(-c3c(C)ccnc3C(C)C)c3nc(-c4ccccc4C(=O)O)c(Cl)cc23)C[C@H]1C` [TM-3, reference compound]: the IC50 in the experiment with NCI-H358 cells (setting [4]) is above 150 nM. In experiment [1], the “Tumor suppression ratio (%)” value is “+ (“+” represents that the tumor suppression ratio is less than 60%)”.
